# In the kinase profiling compilation of Christmann-Franck et al. (2016):
# Assays:
# Experiment in all cases: radiometric filter-binding kinase assay, Kinase HotSpot
# Details in all cases: compound 0.5 µM; ATP 10 µM
# ACVRL1 (human) = ACVRL1 (human) (UniProt P37023)
# ADRBK1 (human) = ADRBK1 (human) (UniProt P25098)
# [1] = tested on: ARAF (human), P10398 [Y301D/Y302D]
# BRAF (human) = BRAF (human) (UniProt P15056)
# CAMK1D (human) = CAMK1D (human) (UniProt Q8IU85)
# CAMKK2 (human) = CAMKK2 (human) (UniProt Q96RR4)
# Chain of CAMKK2 (human) (Q96RR4 whole entry, looked up): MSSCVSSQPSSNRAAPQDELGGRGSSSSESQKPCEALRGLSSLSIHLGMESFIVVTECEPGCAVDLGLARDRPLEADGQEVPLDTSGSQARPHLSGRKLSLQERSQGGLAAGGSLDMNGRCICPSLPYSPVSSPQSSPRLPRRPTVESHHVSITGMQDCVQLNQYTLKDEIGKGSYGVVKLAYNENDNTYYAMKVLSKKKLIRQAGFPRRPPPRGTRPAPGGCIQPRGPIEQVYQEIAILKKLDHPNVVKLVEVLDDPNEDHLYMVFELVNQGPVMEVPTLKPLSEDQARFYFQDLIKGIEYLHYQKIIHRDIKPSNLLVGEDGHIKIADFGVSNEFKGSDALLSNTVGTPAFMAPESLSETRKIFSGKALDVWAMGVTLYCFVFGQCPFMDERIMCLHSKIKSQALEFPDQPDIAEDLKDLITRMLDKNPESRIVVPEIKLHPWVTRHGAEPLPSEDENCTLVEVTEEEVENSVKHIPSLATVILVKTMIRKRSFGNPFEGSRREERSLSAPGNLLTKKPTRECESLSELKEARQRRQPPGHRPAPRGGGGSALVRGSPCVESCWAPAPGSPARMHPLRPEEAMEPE
# CDC42BPA (human) = CDC42BPA (human) (UniProt Q5VT25)
# CHEK1 (human) = CHEK1 (human) (UniProt O14757)
# CSNK2A2 (human) = CSNK2A2 (human) (UniProt P19784)
# Chain of CSNK2A2 (human) (P19784 whole entry, looked up): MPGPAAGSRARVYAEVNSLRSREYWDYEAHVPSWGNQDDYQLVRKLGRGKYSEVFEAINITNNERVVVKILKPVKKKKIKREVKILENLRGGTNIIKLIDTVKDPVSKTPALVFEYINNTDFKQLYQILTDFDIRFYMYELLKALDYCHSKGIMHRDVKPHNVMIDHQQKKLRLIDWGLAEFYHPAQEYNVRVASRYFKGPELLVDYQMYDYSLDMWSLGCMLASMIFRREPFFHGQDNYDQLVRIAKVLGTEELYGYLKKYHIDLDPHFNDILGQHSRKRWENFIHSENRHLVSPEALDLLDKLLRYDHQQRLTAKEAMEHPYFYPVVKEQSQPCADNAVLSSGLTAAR
# DAPK1 (human) = DAPK1 (human) (UniProt P53355)
# DMPK (human) = DMPK (human) (UniProt Q09013)
# DYRK1A (human) = DYRK1A (human) (UniProt Q13627)
# EPHA6 (human) = EPHA6 (human) (UniProt Q9UF33)
# EPHB2 (human) = EPHB2 (human) (UniProt P29323)
# FGFR3 (human) = FGFR3 (human) (UniProt P22607)
# HIPK4 (human) = HIPK4 (human) (UniProt Q8NE63)
# Chain of HIPK4 (human) (Q8NE63 whole entry, looked up): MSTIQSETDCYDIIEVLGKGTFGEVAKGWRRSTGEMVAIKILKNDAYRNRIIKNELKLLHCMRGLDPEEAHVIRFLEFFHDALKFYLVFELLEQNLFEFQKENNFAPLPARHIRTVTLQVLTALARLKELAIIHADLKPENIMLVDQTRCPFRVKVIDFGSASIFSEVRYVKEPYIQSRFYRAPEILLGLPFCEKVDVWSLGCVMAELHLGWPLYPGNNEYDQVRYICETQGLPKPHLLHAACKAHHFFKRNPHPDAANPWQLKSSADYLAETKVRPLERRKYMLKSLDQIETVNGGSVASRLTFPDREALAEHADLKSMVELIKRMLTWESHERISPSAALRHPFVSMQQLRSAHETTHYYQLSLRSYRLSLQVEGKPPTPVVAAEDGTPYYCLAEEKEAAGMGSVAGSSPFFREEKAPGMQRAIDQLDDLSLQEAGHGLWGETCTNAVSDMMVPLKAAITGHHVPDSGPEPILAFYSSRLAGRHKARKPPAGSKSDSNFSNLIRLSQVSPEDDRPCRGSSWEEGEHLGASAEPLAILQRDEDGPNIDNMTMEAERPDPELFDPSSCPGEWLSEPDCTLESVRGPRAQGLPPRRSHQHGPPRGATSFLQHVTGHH
# IRAK1 (human) = IRAK1 (human) (UniProt P51617)
# LTK (human) = LTK (human) (UniProt P29376)
# MAPK12 (human) = MAPK12 (human) (UniProt P53778)
# MYO3B (human) = MYO3B (human) (UniProt Q8WXR4)
# NEK4 (human) = NEK4 (human) (UniProt P51957)
# NEK7 (human) = NEK7 (human) (UniProt Q8TDX7)
# Chain of NEK7 (human) (Q8TDX7 whole entry, looked up): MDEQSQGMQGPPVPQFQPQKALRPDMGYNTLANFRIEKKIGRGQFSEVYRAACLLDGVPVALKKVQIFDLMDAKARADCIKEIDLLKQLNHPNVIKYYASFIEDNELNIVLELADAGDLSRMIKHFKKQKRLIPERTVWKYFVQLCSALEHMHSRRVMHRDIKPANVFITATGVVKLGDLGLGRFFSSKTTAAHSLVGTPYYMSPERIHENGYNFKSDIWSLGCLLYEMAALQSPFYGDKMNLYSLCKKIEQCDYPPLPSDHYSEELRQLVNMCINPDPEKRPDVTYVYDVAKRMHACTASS
# OXSR1 (human) = OXSR1 (human) (UniProt O95747)
# PDGFRB (human) = PDGFRB (human) (UniProt P09619)
# PIM1 (human) = PIM1 (human) (UniProt P11309)
# Chain of PIM1 (human) (P11309 whole entry, looked up): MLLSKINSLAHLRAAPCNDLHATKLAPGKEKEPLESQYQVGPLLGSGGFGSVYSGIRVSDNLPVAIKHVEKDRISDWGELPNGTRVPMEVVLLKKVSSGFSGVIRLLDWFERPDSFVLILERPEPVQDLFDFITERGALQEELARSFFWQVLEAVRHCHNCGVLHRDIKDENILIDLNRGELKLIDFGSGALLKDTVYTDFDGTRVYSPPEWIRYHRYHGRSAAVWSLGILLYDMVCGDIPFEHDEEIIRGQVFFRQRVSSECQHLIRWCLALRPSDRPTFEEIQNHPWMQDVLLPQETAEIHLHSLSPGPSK
# PRKACG (human) = PRKACG (human) (UniProt P22612)
# PRKCG (human) = PRKCG (human) (UniProt P05129)
# PTK6 (human) = PTK6 (human) (UniProt Q13882)
# RPS6KB2 (human) = RPS6KB2 (human) (UniProt Q9UBS0)
# SRPK2 (human) = SRPK2 (human) (UniProt P78362)
# STK24 (human) = STK24 (human) (UniProt Q9Y6E0)
# Chain of STK24 (human) (Q9Y6E0 whole entry, looked up): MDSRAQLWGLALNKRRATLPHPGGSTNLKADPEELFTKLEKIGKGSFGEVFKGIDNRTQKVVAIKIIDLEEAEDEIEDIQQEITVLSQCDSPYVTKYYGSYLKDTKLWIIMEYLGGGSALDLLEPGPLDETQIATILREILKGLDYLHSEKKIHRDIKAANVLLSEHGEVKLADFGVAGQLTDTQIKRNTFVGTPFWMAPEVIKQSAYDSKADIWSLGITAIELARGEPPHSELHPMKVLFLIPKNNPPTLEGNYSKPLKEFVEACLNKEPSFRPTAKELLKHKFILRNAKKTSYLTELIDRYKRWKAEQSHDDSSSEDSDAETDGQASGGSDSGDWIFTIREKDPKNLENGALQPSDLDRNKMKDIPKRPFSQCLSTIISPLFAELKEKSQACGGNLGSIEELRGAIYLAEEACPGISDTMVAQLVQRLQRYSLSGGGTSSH
# STK38 (human) = STK38 (human) (UniProt Q15208)
# TGFBR2 (human) = TGFBR2 (human) (UniProt P37173)
# Chain of TGFBR2 (human) (P37173 whole entry, looked up): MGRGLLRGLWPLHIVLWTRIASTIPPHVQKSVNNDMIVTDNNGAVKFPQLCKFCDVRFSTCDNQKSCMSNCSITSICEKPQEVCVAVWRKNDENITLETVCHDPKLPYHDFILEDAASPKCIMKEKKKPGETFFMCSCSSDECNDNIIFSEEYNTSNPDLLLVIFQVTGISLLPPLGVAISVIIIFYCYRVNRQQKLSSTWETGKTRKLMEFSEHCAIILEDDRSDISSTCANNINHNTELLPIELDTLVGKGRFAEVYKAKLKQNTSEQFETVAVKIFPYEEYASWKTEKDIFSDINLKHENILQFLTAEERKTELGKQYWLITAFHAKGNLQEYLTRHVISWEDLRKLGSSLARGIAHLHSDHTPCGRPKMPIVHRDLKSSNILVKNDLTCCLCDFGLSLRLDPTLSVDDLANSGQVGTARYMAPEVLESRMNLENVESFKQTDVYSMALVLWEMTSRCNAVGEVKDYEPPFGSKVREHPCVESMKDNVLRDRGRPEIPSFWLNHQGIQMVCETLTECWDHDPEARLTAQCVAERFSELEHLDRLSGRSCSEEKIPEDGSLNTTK
# TLK2 (human) = TLK2 (human) (UniProt Q86UE8)
# TSSK1B (human) = TSSK1B (human) (UniProt Q9BXA7)
# TTK (human) = TTK (human) (UniProt P33981)
# Chain of TTK (human) (P33981 whole entry, looked up): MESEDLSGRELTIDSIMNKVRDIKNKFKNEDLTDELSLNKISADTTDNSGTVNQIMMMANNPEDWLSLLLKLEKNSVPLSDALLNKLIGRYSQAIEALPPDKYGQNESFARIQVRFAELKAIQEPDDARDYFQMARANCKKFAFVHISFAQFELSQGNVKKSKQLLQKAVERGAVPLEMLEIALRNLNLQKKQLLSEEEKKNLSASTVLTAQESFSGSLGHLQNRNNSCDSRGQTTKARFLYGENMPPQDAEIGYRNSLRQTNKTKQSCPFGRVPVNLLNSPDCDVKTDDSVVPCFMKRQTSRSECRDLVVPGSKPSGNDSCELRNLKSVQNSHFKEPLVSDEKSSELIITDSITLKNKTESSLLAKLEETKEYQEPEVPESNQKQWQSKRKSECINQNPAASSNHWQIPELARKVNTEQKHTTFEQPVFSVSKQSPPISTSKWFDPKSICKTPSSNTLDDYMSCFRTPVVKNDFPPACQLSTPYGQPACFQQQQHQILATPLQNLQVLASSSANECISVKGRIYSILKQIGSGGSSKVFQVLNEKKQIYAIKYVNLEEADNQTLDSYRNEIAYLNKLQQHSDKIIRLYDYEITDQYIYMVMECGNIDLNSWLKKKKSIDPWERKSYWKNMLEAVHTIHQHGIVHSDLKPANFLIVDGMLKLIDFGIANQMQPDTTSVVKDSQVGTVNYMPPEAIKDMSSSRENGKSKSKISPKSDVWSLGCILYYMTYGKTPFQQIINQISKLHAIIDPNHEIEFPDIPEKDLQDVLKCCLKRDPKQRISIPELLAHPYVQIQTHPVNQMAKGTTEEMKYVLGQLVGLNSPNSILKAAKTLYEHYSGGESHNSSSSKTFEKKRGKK
# TYRO3 (human) = TYRO3 (human) (UniProt Q06418)
# Chain of TYRO3 (human) (Q06418 whole entry, looked up): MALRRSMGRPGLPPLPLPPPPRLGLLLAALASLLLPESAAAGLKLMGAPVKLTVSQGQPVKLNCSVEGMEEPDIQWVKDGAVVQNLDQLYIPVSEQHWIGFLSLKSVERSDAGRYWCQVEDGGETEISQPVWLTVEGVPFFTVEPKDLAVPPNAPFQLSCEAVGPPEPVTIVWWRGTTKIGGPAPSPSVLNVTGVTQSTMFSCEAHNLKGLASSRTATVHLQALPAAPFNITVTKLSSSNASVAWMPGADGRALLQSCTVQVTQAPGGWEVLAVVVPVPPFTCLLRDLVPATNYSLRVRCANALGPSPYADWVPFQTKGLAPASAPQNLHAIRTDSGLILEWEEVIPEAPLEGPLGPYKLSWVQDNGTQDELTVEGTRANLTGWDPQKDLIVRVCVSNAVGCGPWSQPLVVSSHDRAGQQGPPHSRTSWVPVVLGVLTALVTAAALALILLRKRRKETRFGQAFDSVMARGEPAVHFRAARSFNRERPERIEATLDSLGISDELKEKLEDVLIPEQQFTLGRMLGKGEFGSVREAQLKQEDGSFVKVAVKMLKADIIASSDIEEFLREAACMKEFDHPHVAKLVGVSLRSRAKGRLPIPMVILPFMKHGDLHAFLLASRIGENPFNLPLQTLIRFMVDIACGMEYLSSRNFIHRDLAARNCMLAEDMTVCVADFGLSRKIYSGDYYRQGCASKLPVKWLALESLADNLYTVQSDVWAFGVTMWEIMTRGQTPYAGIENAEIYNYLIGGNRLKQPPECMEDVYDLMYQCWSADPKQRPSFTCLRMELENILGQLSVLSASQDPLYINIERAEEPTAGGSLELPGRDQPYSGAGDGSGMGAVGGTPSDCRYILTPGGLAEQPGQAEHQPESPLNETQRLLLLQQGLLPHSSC
# ULK3 (human) = ULK3 (human) (UniProt Q6PHR2)
# LCK (human) = LCK (human) (UniProt P06239)
# ABL1 (human) = ABL1 (human) (UniProt P00519)
Compound,residual activity (ACVRL1 (human)),residual activity (ADRBK1 (human)),residual activity [1],residual activity (BRAF (human)),residual activity (CAMK1D (human)),residual activity (CAMKK2 (human)),residual activity (CDC42BPA (human)),residual activity (CHEK1 (human)),residual activity (CSNK2A2 (human)),residual activity (DAPK1 (human)),residual activity (DMPK (human)),residual activity (DYRK1A (human)),residual activity (EPHA6 (human)),residual activity (EPHB2 (human)),residual activity (FGFR3 (human)),residual activity (HIPK4 (human)),residual activity (IRAK1 (human)),residual activity (LTK (human)),residual activity (MAPK12 (human)),residual activity (MYO3B (human)),further results
COc1cc2ncnc(Nc3ccc(F)c(Cl)c3)c2cc1OCCCN1CCOCC1,96.9%,93.3%,95.3%,95.8%,88.6%,103%,87.8%,95.3%,88.6%,109%,90.1%,101%,28.9%,87.7%,79.3%,90.4%,57.6%,90.4%,97.5%,91.4%,residual activity (NEK4 (human)): 103%; residual activity (NEK7 (human)): 96.9%; residual activity (OXSR1 (human)): 101%; residual activity (PDGFRB (human)): 93.9%; residual activity (PIM1 (human)): 86.4%; residual activity (PRKACG (human)): 107%; residual activity (PRKCG (human)): 84.2%; residual activity (PTK6 (human)): 77.2%; residual activity (RPS6KB2 (human)): 101%; residual activity (SRPK2 (human)): 99.5%; residual activity (STK24 (human)): 102%; residual activity (STK38 (human)): 105%; residual activity (TGFBR2 (human)): 93.8%; residual activity (TLK2 (human)): 80.4%; residual activity (TSSK1B (human)): 90%; residual activity (TTK (human)): 96.3%; residual activity (TYRO3 (human)): 94.9%; residual activity (ULK3 (human)): 108%
Oc1ccc(-c2nc(-c3ccc(F)cc3)c(-c3ccncc3)[nH]2)cc1,95.4%,101%,31.1%,60.5%,102%,118%,94%,98.9%,95.9%,95%,106%,99.6%,57.3%,105%,99.2%,89.7%,123%,97.1%,102%,101%,residual activity (LCK (human)): 92.6%; residual activity (NEK4 (human)): 94%; residual activity (NEK7 (human)): 103%; residual activity (OXSR1 (human)): 97.6%; residual activity (PDGFRB (human)): 104%; residual activity (PIM1 (human)): 106%; residual activity (PRKACG (human)): 78.4%; residual activity (PRKCG (human)): 87.9%; residual activity (PTK6 (human)): 50.3%; residual activity (RPS6KB2 (human)): 91.4%; residual activity (SRPK2 (human)): 102%; residual activity (STK24 (human)): 95.2%; residual activity (STK38 (human)): 99.8%; residual activity (TGFBR2 (human)): 127%; residual activity (TLK2 (human)): 97.4%; residual activity (TSSK1B (human)): 104%; residual activity (TTK (human)): 103%; residual activity (TYRO3 (human)): 97.5%; residual activity (ULK3 (human)): 85.5%
Clc1ccc(Nc2nnc(Cc3ccncc3)c3ccccc23)cc1,98.5%,102%,97.6%,92.2%,108%,100%,78.3%,96.5%,106%,105%,102%,102%,101%,107%,91.5%,95.9%,94.1%,105%,96.8%,102%,residual activity (ABL1 (human)): 96.5%; residual activity (LCK (human)): 87%; residual activity (NEK4 (human)): 97.7%; residual activity (NEK7 (human)): 96.8%; residual activity (OXSR1 (human)): 101%; residual activity (PIM1 (human)): 102%; residual activity (PRKACG (human)): 116%; residual activity (PRKCG (human)): 93.3%; residual activity (RPS6KB2 (human)): 101%; residual activity (SRPK2 (human)): 96.5%; residual activity (STK24 (human)): 98.7%; residual activity (STK38 (human)): 100%; residual activity (TGFBR2 (human)): 100%; residual activity (TLK2 (human)): 102%; residual activity (TSSK1B (human)): 94.8%; residual activity (TTK (human)): 108%; residual activity (TYRO3 (human)): 98.2%; residual activity (ULK3 (human)): 101%
